# Measurements taken from ChEMBL document CHEMBL1201862, “PubChem BioAssay data set” (2004).
#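 Five compound concentrations were applied to cells in 96-well plates for 48 hours; endpoints were derived by simple linear interpolation of the resulting dose-response curve. Here, GI50 denotes the concentration required for 50% inhibition of growth.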 The source made the active and inactive calls. Cut-off read from the data, not from the text of the source: active = GI50 up to about 1.1 µM and inactive = higher. Bridge positions count the residues as written; N and C are the ends. Where a SMILES comes first, the peptide text is derived from it. Peptide text beside a SMILES is read from it. [ ]: non-standard residue; d: D form. * marks the point of attachment. Aoe = N[C@@H](CCCCCC(=O)[C@@H]1CO1)C(=O)O; Cbz = O=C(OCc1ccccc1)*
# Key:
# Test in all cases: NCI tumour cell line growth inhibition, 48 h
# A549 = tested on: A549
# EKVX = tested on: EKVX
# HCC 2998 = tested on: HCC 2998
# HOP-62 = tested on: HOP-62
# HT-29 = tested on: HT-29
# Hs-578T = tested on: Hs-578T
# IGROV-1 = tested on: IGROV-1
# K562 = tested on: K562
# MDA-N = tested on: MDA-N
# NCI-H23 = tested on: NCI-H23
# NCI-H460 = tested on: NCI-H460
# NCI-H522 = tested on: NCI-H522
# OVCAR-3 = tested on: OVCAR-3
# SF-268 = tested on: SF-268
# SF-539 = tested on: SF-539
# SK-MEL-5 = tested on: SK-MEL-5
# SK-OV-3 = tested on: SK-OV-3
# SW-620 = tested on: SW-620
# UO-31 = tested on: UO-31
# HL-60 = tested on: HL-60
SMILES,GI50 (A549),GI50 (EKVX),GI50 (HCC 2998),GI50 (HOP-62),GI50 (HT-29),GI50 (Hs-578T),GI50 (IGROV-1),GI50 (K562),GI50 (MDA-N),GI50 (NCI-H23),GI50 (NCI-H460),GI50 (NCI-H522),GI50 (OVCAR-3),GI50 (SF-268),GI50 (SF-539),GI50 (SK-MEL-5),GI50 (SK-OV-3),GI50 (SW-620),GI50 (UO-31),GI50 (HL-60)
O=c1[nH]/c(=C/c2ccc3c(c2)OCO3)c(=O)[nH]/c1=C/c1ccc2c(c1)OCO2,> 10 µM (inactive),> 10 µM (inactive),> 10 µM (inactive),> 10 µM (inactive),> 10 µM (inactive),> 10 µM (inactive),> 10 µM (inactive),> 10 µM (inactive),> 10 µM (inactive),> 10 µM (inactive),> 10 µM (inactive),> 10 µM (inactive),> 10 µM (inactive),> 10 µM (inactive),> 10 µM (inactive),> 10 µM (inactive),> 10 µM (inactive),> 10 µM (inactive),> 10 µM (inactive),–
CCOC(=O)Cn1c2ccc(Br)cc2c2nc3ccccc3nc21,> 100 µM (inactive),–,–,> 100 µM (inactive),> 100 µM (inactive),93.3 µM (inactive),55.7 µM (inactive),> 100 µM (inactive),> 100 µM (inactive),> 100 µM (inactive),–,–,> 100 µM (inactive),> 100 µM (inactive),–,> 100 µM (inactive),–,> 100 µM (inactive),> 100 µM (inactive),–
Cc1ccc([N+](=O)[O-])cc1S(=O)(=O)Nc1ccc(C2=NN(C(=O)c3ccccc3)C(c3cccs3)C2)cc1 (stereo not drawn),19.5 µM (inactive),21.5 µM (inactive),–,20.9 µM (inactive),26.3 µM (inactive),27 µM (inactive),16.9 µM (inactive),22.1 µM (inactive),23.8 µM (inactive),15.6 µM (inactive),–,12.9 µM (inactive),13 µM (inactive),20 µM (inactive),18.2 µM (inactive),13.6 µM (inactive),20.6 µM (inactive),45.5 µM (inactive),24 µM (inactive),26.3 µM (inactive)
NC1OC(COC(=O)c2ccccc2)C(O)C(OC(=O)c2ccccc2)C1OC(=O)c1ccccc1 (stereo not drawn),19.1 µM (inactive),21.3 µM (inactive),–,22.7 µM (inactive),17.3 µM (inactive),15.1 µM (inactive),16.9 µM (inactive),–,22.3 µM (inactive),25.4 µM (inactive),11.4 µM (inactive),23.9 µM (inactive),25.2 µM (inactive),22.6 µM (inactive),–,14.4 µM (inactive),41.3 µM (inactive),19 µM (inactive),33.5 µM (inactive),–
Cc1cccc2c1Oc1cc(Cl)ccc1C2NC(=O)CCN1CCOCC1 (stereo not drawn),> 100 µM (inactive),> 100 µM (inactive),> 100 µM (inactive),> 100 µM (inactive),61.8 µM (inactive),–,> 100 µM (inactive),> 100 µM (inactive),> 100 µM (inactive),> 100 µM (inactive),> 100 µM (inactive),> 100 µM (inactive),> 100 µM (inactive),> 100 µM (inactive),> 100 µM (inactive),> 100 µM (inactive),> 100 µM (inactive),> 100 µM (inactive),49.8 µM (inactive),32.2 µM (inactive)
c1ccc(CNCCCCNCCCNCc2ccccc2)cc1,17.4 µM (inactive),25.6 µM (inactive),16.9 µM (inactive),22.2 µM (inactive),15.2 µM (inactive),14 µM (inactive),13.1 µM (inactive),18 µM (inactive),12.9 µM (inactive),22 µM (inactive),15.3 µM (inactive),15.2 µM (inactive),20 µM (inactive),18.8 µM (inactive),–,17.6 µM (inactive),> 100 µM (inactive),15.8 µM (inactive),21.5 µM (inactive),–
COc1cc(N2C(=O)C(=O)C3(CCCCC3)C2=O)cc(OC)c1OC,> 100 µM (inactive),> 100 µM (inactive),> 100 µM (inactive),57.5 µM (inactive),> 100 µM (inactive),–,–,> 100 µM (inactive),> 100 µM (inactive),> 100 µM (inactive),–,> 100 µM (inactive),> 100 µM (inactive),> 100 µM (inactive),> 100 µM (inactive),> 100 µM (inactive),> 100 µM (inactive),> 100 µM (inactive),73.3 µM (inactive),> 100 µM (inactive)
CC(NC(=O)C(C)C(=O)NCc1ccc(C(F)(F)F)cc1)C(N)=O (stereo not drawn),> 100 µM (inactive),> 100 µM (inactive),–,–,> 100 µM (inactive),> 100 µM (inactive),> 100 µM (inactive),> 100 µM (inactive),> 100 µM (inactive),> 100 µM (inactive),> 100 µM (inactive),34.9 µM (inactive),–,> 100 µM (inactive),> 100 µM (inactive),> 100 µM (inactive),> 100 µM (inactive),> 100 µM (inactive),> 100 µM (inactive),> 100 µM (inactive)
COC(=O)c1c(-c2ccc(Cl)cc2)cc2c3ccccc3n(C)c2c1C(=O)OC,> 100 µM (inactive),> 100 µM (inactive),–,> 100 µM (inactive),91.6 µM (inactive),> 100 µM (inactive),> 100 µM (inactive),22.8 µM (inactive),> 100 µM (inactive),> 100 µM (inactive),49.8 µM (inactive),67.5 µM (inactive),> 100 µM (inactive),> 100 µM (inactive),> 100 µM (inactive),> 100 µM (inactive),> 100 µM (inactive),> 100 µM (inactive),2.47 µM (inactive),26.8 µM (inactive)
Cc1ccc(-n2cc([Si](C)(C)C)nn2)s1,> 100 µM (inactive),–,81.3 µM (inactive),–,34.8 µM (inactive),> 100 µM (inactive),–,45.1 µM (inactive),> 100 µM (inactive),68.4 µM (inactive),> 100 µM (inactive),> 100 µM (inactive),> 100 µM (inactive),> 100 µM (inactive),> 100 µM (inactive),45.4 µM (inactive),> 100 µM (inactive),> 100 µM (inactive),84.3 µM (inactive),–
CC(=O)OCC1OC(n2c(C)c(C)c(C)c(C#N)c2=S)C(OC(C)=O)C(OC(C)=O)C1OC(C)=O (stereo not drawn),> 100 µM (inactive),26.2 µM (inactive),> 100 µM (inactive),13.3 µM (inactive),> 100 µM (inactive),–,> 100 µM (inactive),> 100 µM (inactive),> 100 µM (inactive),> 100 µM (inactive),> 100 µM (inactive),21.8 µM (inactive),> 100 µM (inactive),95.5 µM (inactive),69.7 µM (inactive),> 100 µM (inactive),24.8 µM (inactive),> 100 µM (inactive),14.7 µM (inactive),> 100 µM (inactive)
COc1ccc(C2=NNC(c3cc4cc(Br)ccc4nc3Cl)C2)cc1 (stereo not drawn),–,19.4 µM (inactive),11.5 µM (inactive),–,14.6 µM (inactive),0.0129 µM (active),9.42 µM (inactive),6.21 µM (inactive),6.31 µM (inactive),15.4 µM (inactive),10 µM (inactive),–,18.2 µM (inactive),–,–,–,–,10.9 µM (inactive),13.1 µM (inactive),6.19 µM (inactive)
Cc1cc(S(=O)(=O)Nc2nc3ccsc3c(=O)n2N)c(S)cc1Cl,> 100 µM (inactive),> 100 µM (inactive),> 100 µM (inactive),39.9 µM (inactive),> 100 µM (inactive),–,> 100 µM (inactive),86.9 µM (inactive),> 100 µM (inactive),> 100 µM (inactive),53.2 µM (inactive),44 µM (inactive),> 100 µM (inactive),42.2 µM (inactive),> 100 µM (inactive),56.9 µM (inactive),> 100 µM (inactive),> 100 µM (inactive),–,> 100 µM (inactive)
CNC(=O)C1CCCCNC(=O)CCC(NC(=O)OCc2ccccc2)C(=O)N1 (stereo not drawn) (Cbz-Glu-Lys-NHMe; lactam 1-2; configuration not given here),> 100 µM (inactive),> 100 µM (inactive),–,> 100 µM (inactive),> 100 µM (inactive),> 100 µM (inactive),> 100 µM (inactive),> 100 µM (inactive),> 100 µM (inactive),> 100 µM (inactive),> 100 µM (inactive),> 100 µM (inactive),> 100 µM (inactive),> 100 µM (inactive),> 100 µM (inactive),> 100 µM (inactive),> 100 µM (inactive),> 100 µM (inactive),> 100 µM (inactive),> 100 µM (inactive)
O=C1N[C@@H](Cc2ccccc2)C(=O)N2CCC[C@@H]2C(=O)N[C@@H](CCCCCC(=O)[C@@H]2CO2)C(=O)N[C@H]1Cc1ccccc1 [TRAPOXIN B] (cyclo(FF[dP][Aoe])),0.00265 µM (active),0.0632 µM (active),0.0343 µM (active),< 0.000212 µM (active),< 0.000212 µM (active),0.000685 µM (active),0.019 µM (active),< 0.000212 µM (active),0.000512 µM (active),–,0.011 µM (active),0.00052 µM (active),0.00122 µM (active),0.0119 µM (active),–,0.000497 µM (active),0.05 µM (active),0.000305 µM (active),0.00209 µM (active),–
